Measured values from article PMC8207694, “Nucleoside transporter-guided cytarabine-conjugated liposomes for intracellular methotrexate delivery and cooperative choriocarcinoma therapy” (Journal of Nanobiotechnology, 2021).

What was measured:
JEG-3 cells [1] = test: In vitro cytotoxicity, MTT assay; assay type: cell-based; conditions: Homo sapiens; JEG-3, 48 h, MTX-equivalent
Protocol: (§1) The cytotoxicities of MTX formulations were assessed via MTT assay. The groups were as follows: MTX solution (free MTX), MTX plus DSPE-PEG2k-Cy (abbreviated as MTX + Cy-lipid, the molar ratio of Cy-lipid to MTX was about 1:5.0), Lipo@MTX, and Cy-Lipo@MTX. JEG-3 cells or Pricell-0051 cells were added to 96-well plates (1 × 10^4 cells/well). After 24 h, cells were rinsed using PBS and treated with MTX formulations (0.001–30 μg MTX-equivalent/mL) for 48 h at 37 °C [40]. Viability was assessed by adding 20 μL of MTT (5 mg/mL) per well for 4 h. Next, the medium was removed and formazan crystals were dissolved via the addition of 150 μL of DMSO. A microplate reader (Varioskan Flash 3001, Thermo Fisher Scientific, USA) was then used to assess absorbance at 490 nm.

Pricell-0051 cells = test: In vitro cytotoxicity, MTT assay; assay type: cell-based; conditions: Homo sapiens; Pricell-0051, 48 h, MTX-equivalent
Protocol: as §1

JEG-3 cells [2] = test: Apoptosis (FITC Annexin V, flow cytometry); assay type: cell-based, human; conditions: 1 μg/mL MTX-equivalent, 24 h; control 10.39 ± 2.78%
Protocol: Apoptosis of JEG-3 cells was detected using the FITC Annexin V Apoptosis Detection Kit I. The cells (10^5/well) were seeded in 6-well plates. Following culture for 24 h, cells were treated with culture medium or MTX formulation-contained culture medium at an equivalent MTX concentration (1 μg/mL) for another 24 h. All other protocols were conducted based on the provided directions. The cells were analyzed by flow cytometry.

JEG-3 cells [3] = test: Mitochondrial transmembrane potential (JC-1, CLSM); assay type: cell-based, human; conditions: 1 μg/mL MTX-equivalent, 24 h
Protocol: Mitochondrial transmembrane potential changes induced by various MTX formulations were evaluated by the JC-1 probe. Briefly, JEG-3 cells were added to the confocal dish. Following culture for 24 h, the cells were treated with free MTX, MTX + Cy-lipid, Lipo@MTX, or Cy-Lipo@MTX at an equivalent MTX concentration (1 μg/mL) for 24 h. JC-1 solution was exchanged for cold PBS following two JC-1 staining buffer washes, after which samples were assessed by CLSM at λex (488 nm)/λem (530 nm) for green fluorescence and λex (525 nm)/λem (590 nm) for red fluorescence.

JEG-3 cells [4] = test: Cell structure damage (bio-TEM); assay type: cell-based, human; conditions: 1 μg/mL MTX-equivalent, 24 h
Protocol: Bio-TEM was applied for observing the cell structure and mitochondrial damage effect induced by MTX formulations. Briefly, JEG-3 cells were seeded in a 6 cm dish. After culturing for 24 h, the cells were treated with free MTX, MTX + Cy-lipid, Lipo@MTX, or Cy-Lipo@MTX at an equivalent MTX concentration (1 μg/mL) for another 24 h. Then, cells were digested, centrifuged, and fixed with 2.5% glutaraldehyde solution at 4 °C for more than 4 h. Finally, the bio-TEM observation was performed after sample preparation.

[5] = Pharmacokinetic study after intravenous administration; assay type: in vivo, SD rats; conditions: rats
Protocol: The advanced Automatic Blood Collection System (Instech, USA) was applied to study the pharmacokinetic feature of various MTX formulations. Female SD rats (200–220 g) were acclimatized at 25 ± 2 °C for 1 week before the experiments. Animals were randomized into 3 groups and each group contained 3 rats. Group I, II, and III were intravenously given free MTX, Lipo@MTX, and Cy-Lipo@MTX respectively at a dose of 10 mg MTX-equivalent/kg body weight. Blood (200 μL) was obtained at 0.25, 0.5, 1, 2, 4, 8, 12, 24, 48, and 72 h through jugular vein after administration. 150 μL of plasma was combined with 450 μL acetonitrile to precipitate proteins, and drug content of samples was analyzed by HPLC. The pharmacokinetic software (DAS 2.0) was used to assess key pharmacokinetic parameters including mean residence time (MRT), area under the curve (AUC), peak plasma concentration (Cmax), half-life (t1/2), and time to maximal plasma concentration (Tmax).

JEG-3 tumor models [6] = test: In vivo antitumor study; design: species or system BALB/c nude mice
Protocol: (§2) When tumors were 50–100 mm^3 in size, nude mice were intravenously administrated with saline or MTX formulations (free MTX, MTX + Cy-lipid, Lipo@MTX, or Cy-Lipo@MTX, 5 mg MTX-equivalent/kg body weight, each group contained 6 mice) on day 6, 9, 12, 14, 18, and 21. On the 24th day, the mice were sacrificed, and the tumors, as well as the main organs, were excised, weighed, washed three times using saline, and subjected to fixation with 10% neutral buffered formalin. The tumor tissues were collected for H&E, TUNEL, and Ki67 staining. […] The survival of large tumor-bearing mice (300–500 mm^3 in size) was analyzed via Kaplan–Meier analysis (each group contained 5 mice).

JEG-3 tumor models [7] = test: Survival of large tumor-bearing mice (Kaplan-Meier); assay type: in vivo; conditions: mice bearing larger tumors 300-500 mm^3; saline 26 days
Protocol: as §2

[8] = Safety: body weight and H&E of primary organs during antitumor study; assay type: in vivo, mice
Protocol: Healthy mice were administered the Lipo@MTX or Cy-Lipo@MTX dispersion via tail vein (10 mg MTX-equivalent/kg body weight every three days) for five times (each group contained 3 mice). Saline was injected as a control. After the administration, blood biochemical indices were measured. During the in vivo antitumor studies, the body weight and activity status of mice in each group were monitored for evaluating the side effects of the MTX formulations. After in vivo antitumor studies, the primary organs of each group were harvested for H&E staining.

[9] = design: method as in PMID 22510625; conditions: liver damage, abdominal pain, gastrointestinal reactions, mucosal damage, bone marrow suppression; cited from earlier work
[10] = design: method as in PMID 28415433; conditions: cited from earlier work
[11] = female, Sprague-Dawley (SD), rat, plasma, iv, 10 mg/kg, 10 mg MTX-equivalent/kg

CN(Cc1cnc2nc(N)nc(N)c2n1)c1ccc(C(=O)N[C@@H](CCC(=O)O)C(=O)O)cc1 [free MTX, Methotrexate]
IC50 (JEG-3 cells [1]): 19.6 µg/mL
IC50 (Pricell-0051 cells): 32.2 µg/mL
apoptotic percentage of JEG-3 cells (JEG-3 cells [2]): 18.03 ± 2.25%
effect on mitochondrial transmembrane potential (JC-1 red fluorescence) (JEG-3 cells [3]): a certain destructive effect on the MMP
cell structure and mitochondria (bio-TEM) (JEG-3 cells [4]): cell structure was intact and the cell boundary was clearly visible
AUC(0-t) [5, 11]: 62400 ± 21500 ng·h/mL
Cmax [5, 11]: 13500 ± 1960 ng/mL
clearance [5, 11]: 1.43 mL/min
MRT last ([5]; female, Sprague-Dawley (SD), rat, plasma, iv, 10 mg/kg, i.v., 10 mg MTX-equivalent/kg, read-out: MRT(0-t)): 6.27 ± 2.52 h
half-life ([5]; female, Sprague-Dawley (SD), rat, plasma, iv, 10 mg/kg, i.v., 10 mg MTX-equivalent/kg, read-out: t1/2β (converted)): 5.23 ± 2.72 h
concentration at 0.25 h ([5]; female, Sprague-Dawley (SD), rat, plasma, iv, after 0.25 h, i.v., 10 mg/kg, read-out: plasma MTX concentration): 13500 ± 1960 ng/mL
concentration at 4 h ([5]; female, Sprague-Dawley (SD), rat, plasma, iv, after 4 h, i.v., 10 mg/kg, read-out: plasma MTX concentration): 4590 ± 1610 ng/mL
concentration at 12 h ([5]; female, Sprague-Dawley (SD), rat, plasma, iv, after 12 h, i.v., 10 mg/kg, read-out: plasma MTX concentration): 1140 ± 490 ng/mL
concentration at 24 h ([5]; female, Sprague-Dawley (SD), rat, plasma, iv, after 24 h, i.v., 10 mg/kg, read-out: plasma MTX concentration): 430 ± 360 ng/mL
Vss ([5]; i.v., 10 mg MTX-equivalent/kg): 0.58 ± 0.10 mg/kg/(mg/mL)
tumor volume (JEG-3 tumor models [6]; day 24, 5 mg MTX-equivalent/kg i.v., six treatments, saline 2211.35 ± 236.66): 1210.14 ± 285.62 mm^3
tumor weight (JEG-3 tumor models [6]; end of treatment cycle (day 24), saline 3.24 ± 0.60): 2.35 ± 0.32 g
median survival time (JEG-3 tumor models [7]): 28 days
H&E-stained slices of major organs ([8]; end of treatment): many edematous glomeruli
body weight change during treatment ([8]; tumor-bearing mice, 5 mg MTX-equivalent/kg): severe weight loss
incidence rate of adverse reactions during systemic administration [9]: more than 30%
solubility in acidic versus neutral solutions [10]: solubility of MTX in acidic solutions is greater than that in neutral solutions
